Measured values as given in ChEMBL document CHEMBL3046035, “Synthesis and biological evaluation of novel 4,5-dihydropyrazole derivatives as potent anticancer and antimicrobial agents” (Med Chem Res, 2013).
pIC50: −log10 of the molar value. Values after ≈ are worked out from the molar mass of the structure shown.

Assays:
[1] = tested on: Aspergillus niger; assay: Antimicrobial activity against Aspergillus niger ATCC 6275 assessed as growth inhibition after 24 hr by broth microdilution method; format: functional; details: ATCC 6275, 24 h
[2] = tested on: Candida tropicalis; assay: Antimicrobial activity against Candida tropicalis ATCC 1369 assessed as growth inhibition after 24 hr by broth microdilution method; format: functional; details: ATCC 1369, 24 h
[3] = tested on: Saccharomyces cerevisiae; assay: Antimicrobial activity against Saccharomyces cerevisiae ATCC 9763 assessed as growth inhibition after 24 hr by broth microdilution method; format: functional; details: ATCC 9763, 24 h
[4] = tested on: Pseudomonas aeruginosa; assay: Antimicrobial activity against Pseudomonas aeruginosa ATCC 10145 assessed as growth inhibition after 24 hr by broth microdilution method; format: functional; details: ATCC 10145, 24 h
[5] = tested on: Escherichia coli; assay: Antimicrobial activity against Escherichia coli ATCC 10536 assessed as growth inhibition after 24 hr by broth microdilution method; format: functional; details: ATCC 10536, 24 h
[6] = tested on: Klebsiella pneumoniae; assay: Antimicrobial activity against Klebsiella pneumoniae ATCC 10031 assessed as growth inhibition after 24 hr by broth microdilution method; format: functional; details: ATCC 10031, 24 h
[7] = tested on: Bacillus subtilis; assay: Antimicrobial activity against Bacillus subtilis ATCC 60511 assessed as growth inhibition after 24 hr by broth microdilution method; format: functional; details: ATCC 60511, 24 h
[8] = tested on: Enterococcus faecalis; assay: Antimicrobial activity against Enterococcus faecalis ATCC 14506 assessed as growth inhibition after 24 hr by broth microdilution method; format: functional; details: ATCC 14506, 24 h
[9] = tested on: Staphylococcus aureus; assay: Antimicrobial activity against Staphylococcus aureus ATCC 11632 assessed as growth inhibition after 24 hr by broth microdilution method; format: functional; details: ATCC 11632, 24 h
[10] = tested on: BGC-823; assay: Anticancer activity against Homo sapiens (human) BGC823 cells assessed as inhibition of cell viability after 96 hr by MTT assay; format: functional, cell-based; details: BGC-823, 96 h
[11] = tested on: A2780; assay: Anticancer activity against Homo sapiens (human) A2780 cells assessed as inhibition of cell viability after 96 hr by MTT assay; format: functional, cell-based; details: A2780, 96 h
[12] = tested on: MCF7; assay: Anticancer activity against Homo sapiens (human) MCF7 cells assessed as inhibition of cell viability after 96 hr by MTT assay; format: functional, cell-based; details: MCF7, 96 h
[13] = tested on: A549; assay: Anticancer activity against Homo sapiens (human) A549 cells assessed as inhibition of cell viability after 96 hr by MTT assay; format: functional, cell-based; details: A549, 96 h
[14] = tested on: HeLa; assay: Anticancer activity against Homo sapiens (human) HeLa cells assessed as inhibition of cell viability after 96 hr by MTT assay; format: functional, cell-based

SMILES	MIC [1] [µg/mL]	MIC [2] [µg/mL]	MIC [3] [µg/mL]	MIC [4] [µg/mL]	MIC [5] [µg/mL]	MIC [6] [µg/mL]	MIC [7] [µg/mL]	MIC [8] [µg/mL]	MIC [9] [µg/mL]	pIC50 [10]	pIC50 [11]	pIC50 [12]	pIC50 [13]	pIC50 [14]
O=[N+]([O-])c1ccc(-c2csc(N3N=C(c4ccccc4)CC3c3c(F)cccc3F)n2)cc1 (configuration not stated)	16 (≈ 34.6 µM)	125 (≈ 270 µM)	125 (≈ 270 µM)	31.2 (≈ 67.6 µM)	125 (≈ 270 µM)	16 (≈ 34.6 µM)	16 (≈ 34.6 µM)	16 (≈ 34.6 µM)	16 (≈ 34.6 µM)	5.98	5.65	5.68	5.71	5.24
Oc1ccc(-c2csc(N3N=C(c4ccccc4)CC3c3c(F)cccc3F)n2)cc1 (configuration not stated)	16 (≈ 36.9 µM)	125 (≈ 288 µM)	31.2 (≈ 72.1 µM)	62.5 (≈ 144 µM)	62.5 (≈ 144 µM)	16 (≈ 36.9 µM)	31.2 (≈ 72.1 µM)	125 (≈ 288 µM)	16 (≈ 36.9 µM)	5.68	5.61	5.52	5.80	5.15
Cc1ccc(/C=N/NC(=O)Cc2csc(N3N=C(c4ccccc4)CC3c3c(F)cccc3F)n2)cc1 (configuration not stated)	16 (≈ 31 µM)	8 (≈ 15.5 µM)	8 (≈ 15.5 µM)	16 (≈ 31 µM)	125 (≈ 242 µM)	125 (≈ 242 µM)	16 (≈ 31 µM)	16 (≈ 31 µM)	125 (≈ 242 µM)	5.84	5.58	5.78	5.82	5.23
Fc1cccc(F)c1C1CC(c2ccccc2)=NN1C1=NC(c2ccccc2)S1 (configuration not stated)	125 (≈ 308 µM)	31.2 (≈ 77.1 µM)	62.5 (≈ 154 µM)	62.5 (≈ 154 µM)	16 (≈ 39.5 µM)	16 (≈ 39.5 µM)	31.2 (≈ 77.1 µM)	8 (≈ 19.7 µM)	16 (≈ 39.5 µM)	5.71	5.36	5.76	5.68	5.24
Fc1cccc(F)c1C1CC(c2ccccc2)=NN1C1=NC(c2ccc(Cl)cc2Cl)S1 (configuration not stated)	8 (≈ 16.9 µM)	62.5 (≈ 132 µM)	16 (≈ 33.7 µM)	125 (≈ 264 µM)	16 (≈ 33.7 µM)	31.2 (≈ 65.9 µM)	31.2 (≈ 65.9 µM)	125 (≈ 264 µM)	125 (≈ 264 µM)	5.48	5.35	5.72	5.49	5.21
O=C1CSC(N2N=C(c3ccccc3)CC2c2c(F)cccc2F)=N1 (configuration not stated)	31.2 (≈ 87.4 µM)	31.2 (≈ 87.4 µM)	31.2 (≈ 87.4 µM)	16 (≈ 44.8 µM)	62.5 (≈ 175 µM)	16 (≈ 44.8 µM)	31.2 (≈ 87.4 µM)	16 (≈ 44.8 µM)	16 (≈ 44.8 µM)	5.63	5.27	5.71	5.34	5.19
O=C(Cc1csc(N2N=C(c3ccccc3)CC2c2c(F)cccc2F)n1)N/N=C/c1c(F)cccc1F (configuration not stated)	16 (≈ 29.8 µM)	4 (≈ 7.44 µM)	16 (≈ 29.8 µM)	8 (≈ 14.9 µM)	4 (≈ 7.44 µM)	8 (≈ 14.9 µM)	62.5 (≈ 116 µM)	16 (≈ 29.8 µM)	16 (≈ 29.8 µM)	5.88	5.60	5.92	6.02	5.37
O=C(O)c1cn(C2CC2)c2cc(N3CCNCC3)c(F)cc2c1=O [CIPROFLOXACIN]				5 (≈ 15.1 µM)	≤ 1	≤ 1	≤ 1	≤ 5	≤ 5					
Fc1cccc(F)c1C1CC(c2ccccc2)=NN1c1nc(-c2cccnc2)cs1 (configuration not stated)	16 (≈ 38.2 µM)	16 (≈ 38.2 µM)	31.2 (≈ 74.7 µM)	16 (≈ 38.2 µM)	16 (≈ 38.2 µM)	31.2 (≈ 74.7 µM)	31.2 (≈ 74.7 µM)	31.2 (≈ 74.7 µM)	31.2 (≈ 74.7 µM)	5.95	5.50	5.61	5.84	5.22
Fc1cccc(F)c1C1CC(c2ccccc2)=NN1c1nc(-c2ccc(Br)cc2)cs1 (configuration not stated)	62.5 (≈ 126 µM)	62.5 (≈ 126 µM)	62.5 (≈ 126 µM)	31.2 (≈ 63 µM)	31.2 (≈ 63 µM)	16 (≈ 32.2 µM)	8 (≈ 16.1 µM)	8 (≈ 16.1 µM)	16 (≈ 32.2 µM)	5.87	5.61	5.67	5.71	5.21
CCn1cc(C(=O)O)c(=O)c2cc(F)c(N3CCNCC3)cc21 [NORFLOXACIN]				5 (≈ 15.7 µM)	≤ 1	≤ 1	≤ 1	5 (≈ 15.7 µM)	5 (≈ 15.7 µM)					
Fc1cccc(F)c1C1CC(c2ccccc2)=NN1c1nc(-c2ccc(Cl)cc2)cs1 (configuration not stated)	62.5 (≈ 138 µM)	62.5 (≈ 138 µM)	125 (≈ 277 µM)	31.2 (≈ 69.1 µM)	16 (≈ 35.4 µM)	125 (≈ 277 µM)	31.2 (≈ 69.1 µM)	8 (≈ 17.7 µM)	62.5 (≈ 138 µM)	5.84	5.45	5.56	5.68	5.20
OC(Cn1cncn1)(Cn1cncn1)c1ccc(F)cc1F [FLUCONAZOLE]	≤ 1	≤ 1	≤ 1											
O=C(/C=C/c1c(F)cccc1F)c1ccccc1	62.5 (≈ 256 µM)	62.5 (≈ 256 µM)	62.5 (≈ 256 µM)	8 (≈ 32.8 µM)	125 (≈ 512 µM)	125 (≈ 512 µM)	125 (≈ 512 µM)	125 (≈ 512 µM)	31.2 (≈ 128 µM)					
COc1ccc(C2N=C(N3N=C(c4ccccc4)CC3c3c(F)cccc3F)S2)cc1 (configuration not stated)	8 (≈ 18.4 µM)	8 (≈ 18.4 µM)	16 (≈ 36.7 µM)	4 (≈ 9.18 µM)	16 (≈ 36.7 µM)	4 (≈ 9.18 µM)	4 (≈ 9.18 µM)	16 (≈ 36.7 µM)	16 (≈ 36.7 µM)	5.91	5.49	5.69	5.60	5.19
Fc1cccc(F)c1C1CC(c2ccccc2)=NN1c1nc(-c2ccccc2)cs1 (configuration not stated)	125 (≈ 299 µM)	125 (≈ 299 µM)	62.5 (≈ 150 µM)	62.5 (≈ 150 µM)	31.2 (≈ 74.9 µM)	62.5 (≈ 150 µM)	8 (≈ 19.2 µM)	8 (≈ 19.2 µM)	31.2 (≈ 74.9 µM)	5.70	5.51	5.65	5.52	5.23
